In patent publication US7323541B2, “Polypeptide DNA thereof and use of the same” (Takeda Pharmaceutical Company Limited, priority 2001, dated 2008):
Where a chain is given by its changes, count along the chain named. Where no end group is shown, it is not given here.

Columns and labels:
Experiment in all cases: Intracellular Ca ion concentration increasing activity using FLIPR
Type in all cases: cell-based
[1] = biological target: T1, human TGR23-1D expressing CHO cells (Homo sapiens, UniProt Q6W5P4, Q344R)
T1 construct: expressed in transfected cells; host or cells: CHO dhfr- cells, pAKKO-TGR23-1D, clone No. 12
T1 sequence (Q6W5P4 1-371 Q344R): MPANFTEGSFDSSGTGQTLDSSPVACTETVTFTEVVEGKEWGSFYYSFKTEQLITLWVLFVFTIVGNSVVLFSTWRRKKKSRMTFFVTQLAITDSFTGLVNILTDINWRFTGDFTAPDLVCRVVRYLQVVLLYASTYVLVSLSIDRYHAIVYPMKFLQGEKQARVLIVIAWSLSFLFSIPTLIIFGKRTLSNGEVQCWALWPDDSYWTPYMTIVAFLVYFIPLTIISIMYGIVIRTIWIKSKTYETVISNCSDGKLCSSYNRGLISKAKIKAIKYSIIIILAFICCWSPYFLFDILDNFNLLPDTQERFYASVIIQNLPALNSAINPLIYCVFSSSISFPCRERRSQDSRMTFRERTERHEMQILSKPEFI
Protocol: (§1) An enhancing activity of intracellular Ca^2+ release was assayed using FLIPR (Molecular Devices, Inc.). The CHO/TGR23-2 cells prepared in Example 1 and selected in Example 2 were plated on 96-well plate at 3×10^4 cells/well and cultured for 24 hours. A loading buffer was prepared by adding 1 vial of Fluo 3-AM to 10 ml of Hanks' solution (pH7.4) containing 2.5 mM Probenecid and 20 mM HEPES (hereafter, Hanks' solution (pH7.4) containing 2.5 mM Probenecid and 20 mM HEPES may be referred to as a washing buffer). The culture medium was discarded from the culture plate and 100 μl/well of the loading buffer were added to the cells. Then, the cells were incubated for 60 minutes in the incubator. After the loading buffer was removed from the culture plate and the cells were washed with the washing buffer, the plate was put in place of FLIPR. A sample was prepared by adding a sample buffer, which 2 mg/ml BSA and 1 mg/ml CHAPS were added to the washing buffer, to lyophilized product, stirring and treating by ultrasonication for 30 minutes, and transferred to 96-well sample plate. This sample plate was also put in place for assay. The enhancing activity of intracellular Ca^2+ release was measured as an increase of fluorescent intensity, which is raised by addition of the sample.
(§2) The human TGR23-2 ligand (1-20) having various concentrations was administered in accordance with the method described in Example 5, to the CHO cells, in which human TGR23-1A, human TGR23-1B, human TGR23-1C and human TGR23-1D are expressed. Subsequently, the intracellular Ca ion concentration increasing activity was measured using FLIPR.

[2] = biological target: T2, human TGR23-1B expressing CHO cells (Homo sapiens, UniProt Q6W5P4, N107I/S241R)
T2 construct: expressed in transfected cells; host or cells: CHO dhfr- cells, pAKKO-TGR23-1B, clone No. 59
T2 sequence (Q6W5P4 1-371 N107I/S241R): T1 sequence (Q6W5P4 1-371 Q344R) with N107I, S241R, R344Q
Protocol: as §1, §2

[3] = biological target: T3, human TGR23-1A expressing CHO cells (Homo sapiens, UniProt Q6W5P4, S241R)
T3 construct: expressed in transfected cells; host or cells: CHO dhfr- cells, pAKKO-TGR23-1A, clone No. 60
T3 sequence (Q6W5P4 1-371 S241R): T1 sequence (Q6W5P4 1-371 Q344R) with S241R, R344Q
Protocol: as §1, §2

[4] = biological target: T4, human TGR23-1C expressing CHO cells (Homo sapiens, UniProt Q6W5P4, N107I)
T4 construct: expressed in transfected cells; host or cells: CHO dhfr- cells, pAKKO-TGR23-1C, clone No. 9
T4 sequence (Q6W5P4 1-371 N107I): T1 sequence (Q6W5P4 1-371 Q344R) with N107I, R344Q
Protocol: as §1, §2

For “SFRNGVGTGMKKTSFQRAKS [human TGR23-2 ligand (1-20)]”, the “intracellular Ca ion concentration increasing activity” value [1] was “the intracellular Ca ion level increased depending on the concentration of this ligand”, the “intracellular Ca ion concentration increasing activity” value [2] was “the intracellular Ca ion level increased depending on the concentration of this ligand” and the “intracellular Ca ion concentration increasing activity” value [3] was “the intracellular Ca ion level increased depending on the concentration of this ligand”. The “intracellular Ca ion concentration increasing activity” value [4] was “the intracellular Ca ion level increased depending on the concentration of this ligand”.
